Legend:
CHRM4 [1] = biological target: T1, CHRM4 (Homo sapiens, UniProt P08173); details: previous reports (Croy 2016; Böhme 2002); cited from earlier work
T1 sequence (P08173 1-479): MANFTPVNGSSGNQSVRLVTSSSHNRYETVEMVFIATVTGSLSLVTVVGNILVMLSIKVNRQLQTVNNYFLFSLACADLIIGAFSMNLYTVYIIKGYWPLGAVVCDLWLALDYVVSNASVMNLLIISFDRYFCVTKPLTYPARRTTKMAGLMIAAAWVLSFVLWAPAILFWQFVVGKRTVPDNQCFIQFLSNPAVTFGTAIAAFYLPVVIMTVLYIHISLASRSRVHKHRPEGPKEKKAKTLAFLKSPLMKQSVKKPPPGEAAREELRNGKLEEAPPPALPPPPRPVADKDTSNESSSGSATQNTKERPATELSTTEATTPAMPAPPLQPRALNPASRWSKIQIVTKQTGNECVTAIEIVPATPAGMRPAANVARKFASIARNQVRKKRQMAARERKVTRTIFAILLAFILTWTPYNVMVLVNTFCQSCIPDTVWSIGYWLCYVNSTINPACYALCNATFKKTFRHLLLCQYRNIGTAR

[2] = biological target: T2, human recombinant CHRM2 receptor (Homo sapiens, UniProt P08172); test: Radioligand binding assay, CHRM2; details: [3H]AF-DX 384 (2 nM), CHO cell membranes, 60 minutes at room temperature; read-out: Ki M2
T2 construct: expressed in transfected cells; host or cells: CHO cells (membranes)
T2 sequence (P08172 1-466): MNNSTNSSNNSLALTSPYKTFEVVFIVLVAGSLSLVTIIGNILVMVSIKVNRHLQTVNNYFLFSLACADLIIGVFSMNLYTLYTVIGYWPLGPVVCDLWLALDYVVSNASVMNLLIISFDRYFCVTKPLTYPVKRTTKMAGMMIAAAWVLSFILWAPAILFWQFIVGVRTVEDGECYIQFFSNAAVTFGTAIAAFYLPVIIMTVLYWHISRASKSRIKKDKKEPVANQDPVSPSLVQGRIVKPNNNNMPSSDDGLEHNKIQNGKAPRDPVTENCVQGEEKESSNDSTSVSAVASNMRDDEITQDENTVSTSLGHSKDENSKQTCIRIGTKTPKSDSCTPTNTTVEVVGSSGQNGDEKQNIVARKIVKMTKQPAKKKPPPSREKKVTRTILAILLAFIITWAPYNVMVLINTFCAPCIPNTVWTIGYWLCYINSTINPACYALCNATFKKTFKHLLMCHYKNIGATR
In short: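 Membranes from CHO cells expressing each human recombinant receptor; radioligands [^3H]pirenzepine (2 nM) for CHRM1, [^3H]AF-DX 384 (2 nM) for CHRM2, [^3H]4-DAMP at 0.2 nM for CHRM3 and 0.3 nM for CHRM5. Compounds at 1×10^−9 to 1×10^−5 M; 60 min, room temperature. Percent inhibition of radioligand binding; Ki determined.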

[3] = biological target: T3, human recombinant CHRM3 receptor (Homo sapiens, UniProt P20309); test: Radioligand binding assay, CHRM3; details: [3H]4-DAMP (0.2 nM), CHO cell membranes, 60 minutes at room temperature; read-out: Ki M3
T3 construct: expressed in transfected cells; host or cells: CHO cells (membranes)
Experimental: PD102807 and Compounds A-K at concentrations of 1×10^−9 M, 1×10^−8 M, 1×10^−7 M, 1×10^−6 M, and 1×10^−5 M were tested in standard binding assays with radioligands and cell membranes with receptors. Compound binding was calculated as a percent inhibition of the binding of a radioactively labeled ligand specific for each target, and the Ki values were determined. For CHRM1, the binding assay was performed using [^3H]pirenzepine (2 nM) as a radioligand and membranes of CHO cells with human recombinant CHRM1 receptor. The incubation time was 60 minutes at room temperature. For CHRM2, the binding assay was performed using [^3H]AF-DX 384 (2 nM) as a radioligand and membranes of CHO cells with human recombinant CHRM2 receptor. The incubation time was also 60 minutes at room temperature. For CHRM3, the binding assay was performed using [^3H]4-DAMP (0.2 nM) as a radioligand and membranes of CHO cells with human recombinant CHRM3 receptor. The incubation time was also 60 minutes at room temperature. For CHRM4, the binding assay was performed using [^3H]4-DAMP (0.2 nM) as a radioligand and membranes of CHO cells with human recombinant CHRM4 receptor. The incubation time was also 60 minutes at room temperature. For CHRM5, the binding assay was performed using [^3H]4-DAMP (0.3 nM) as a radioligand and membranes of CHO cells with human recombinant CHRM5 receptor. The incubation time was also 60 minutes at room temperature.

[4] = tested on: PHZ induced hemolytic anemia in C57bl/6 mice; test: PHZ induced hemolytic anemia mouse model, CBC; assay type: in vivo; details: 100 mg/kg oral once per day, CBC on day 6, vs DMSO control
Experimental: Animal experiments were conducted in the Cold Spring Harbor Laboratory Animal Shared Resource in accordance with Institutional Animal Care and Use Committee-approved procedures. 4-6 weeks old C57bl/6 mice, purchased from Jackson Laboratory and randomly distributed into compound and control treatment groups, were given through oral delivery of PCS1055 (50 mg/kg or 100 mg/kg) twice per day or PD102807 (50 mg/kg or 100 mg/kg) once per day everyday for 3 days. On day 3, mice were intraperitoneally injected with 60 mg/kg PHZ. Mice were then given through oral delivery of PD102807 (50 mg/kg or 100 mg/kg) once per day every day for 2 days. Peripheral blood samples were collected retro-orbitally on day 6 using heparinized capillary tubes in blood collection tubes with K2-EDTA. CBC was performed using Hemavet 950. […] C57bl/6 mice were injected with 60 mg/kg phenylhydrazine to induce hemolysis. Mice were delivered with either vehicle control or Compound A or B (30 mg/kg or 100 mg/kg). Peripheral blood samples were collected retro-orbitally using heparinized capillary tubes into blood collection tubes with K2-EDTA. Complete blood counting was performed using Hemavet 950. Hematocrit (HCT), red blood cell (RBC) and hemoglobin (Hb) values are shown. […] C57bl/6 mice were injected with 60 mg/kg phenylhydrazine to induce hemolysis. Mice were delivered with subcutaneous injection with either vehicle control or Compound B (1.5 mg/kg, 3 mg/kg, or 5 mg/kg) or I (0.5 mg/kg, 0.7 mg/kg, or 1 mg/kg). Peripheral blood samples were collected retro-orbitally using heparinized capillary tubes into blood collection tubes with K2-EDTA. Complete blood counting was performed using Hemavet 950. Hematocrit (HCT), red blood cell (RBC) and hemoglobin (Hb) values are shown.

Mouse BFU-Es = test: Primary mouse BFU-E culture assay (cell expansion); assay type: cell-based
Experimental: Primary mouse BFU-Es were isolated from mouse embryonic day 14.5 (E14.5) fetal liver and cultured in StemSpan serum-free expansion medium, and the numbers of cells formed were counted during culture. BFU-Es were infected with either viruses encoding control shRNA or viruses encoding shRNAs targeting Chrm4, and numbers of GFP+ cells formed during culture were counted. DMSO or 25 mg/kg oxyphenonium bromide was intraperitoneally injected into the hemolysis mouse model, Mx1-cre Srsf2 P95H/WT MDS mouse model, and aging mouse model. Complete blood count (CBC) was performed after compound injection. CREB ChIP-Seq was performed on BFU-Es after culture with 100 μM oxyphenonium bromide for 45 minutes. RNA-Seq was performed in BFU-Es after being cultured with DMSO or oxyphenonium bromide for 3 days.
BFU-Es were isolated from mouse embryonic day 14.5 fetal liver using fluorescence-activated cell sorting (FACS) method previously described (Flygare et al., Blood 117, 3435-3444 (2011)). BFU-Es were cultured in StemSpan SFEM II medium containing rmSCF (100 ng/ml), EPO (2 U/ml), rmIGF-1 (40 ng/ml), dexamethasone (1 nmol/ml or 10 nmol/ml), oxyphenonium bromide ([…]), and orphenadrine citrate (1 μmol/ml).
BFU-Es were isolated from mouse embryonic day 14.5 fetal liver using fluorescence-activated cell sorting (FACS) method. BFU-Es were cultured in StemSpan SFEM II medium containing rmSCF (100 ng/ml), EPO (2 U/ml), rmIGF-1 (40 ng/ml), dexamethasone (1 nM), together with either DMSO, PCS1055 (5 nM), or PD102807 (3 nM). Numbers of cell formed were counted during in vitro culture.
FIGS. 7 and 8 show the results of the primary BFU-E culture assay. […] Highly purified BFU-Es were isolated as lin-Ter-119-CD16/CD32-Sca-1-CD41-c-Kit+CD71/Cd24a^10% low population using the fluorescence-activated cell sorting (FACS) method. BFU-Es were cultured in medium containing rmSCF, EPO, and rmIGF-1, in the presence of PD102807 or Compounds A-K at indicated concentrations.

CHRM4 [5] = biological target: T1, CHRM4; test: Radioligand binding assay, CHRM4; set-up: expressed in transfected cells; host or cells: CHO cells (membranes); details: [3H]4-DAMP (0.2 nM), CHO cell membranes, 60 minutes at room temperature; read-out: Ki M4

T3 sequence (P20309 whole entry): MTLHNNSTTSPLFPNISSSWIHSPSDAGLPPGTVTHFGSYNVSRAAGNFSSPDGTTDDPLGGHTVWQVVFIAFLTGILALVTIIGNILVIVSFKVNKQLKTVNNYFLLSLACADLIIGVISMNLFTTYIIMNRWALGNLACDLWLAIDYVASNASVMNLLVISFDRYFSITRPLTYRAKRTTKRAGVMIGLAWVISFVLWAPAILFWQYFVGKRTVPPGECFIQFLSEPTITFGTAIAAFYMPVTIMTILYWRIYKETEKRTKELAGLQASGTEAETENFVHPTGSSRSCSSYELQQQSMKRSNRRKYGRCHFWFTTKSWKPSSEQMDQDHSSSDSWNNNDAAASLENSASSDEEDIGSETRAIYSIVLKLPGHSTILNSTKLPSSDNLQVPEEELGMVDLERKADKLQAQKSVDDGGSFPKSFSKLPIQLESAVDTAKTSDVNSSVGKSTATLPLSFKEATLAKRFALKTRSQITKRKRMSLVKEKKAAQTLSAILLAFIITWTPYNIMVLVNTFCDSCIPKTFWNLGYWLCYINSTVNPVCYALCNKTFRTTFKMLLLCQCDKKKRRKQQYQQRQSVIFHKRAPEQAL

- Ki [2]: 2.5 µM
- Ki [3]: 0.21 µM
- Ki (CHRM4 [5]): 0.0051 µM
SMILES: CCOC(=O)c1c(C)[nH]c2ccc3c(c12)CN1CCc2cc(OC)ccc2C1O3 (centres unmarked) [PD102807, reference compound]
- selectivity for CHRM4 over other muscarinic acetylcholine receptor family members (CHRM4 [1]): selectively inhibits CHRM4
- HCT, PHZ-induced anemia [4]: significantly improved
- RBC, PHZ-induced anemia [4]: significantly improved
- expansion of BFU-E cells in cell culture (Mouse BFU-Es; 3 nM PD102807): increase the expansion of BFU-E cells
- BFU-E expansion, cell numbers at day 9 (Mouse BFU-Es; indicated concentrations, vs untreated): induce BFU-E expansion

Source: US12497411B2, “Muscarinic acetylcholine receptor subtype 4 antagonists in the treatment of anemia” (COLD SPRING HARBOR LABORATORY, priority 2019, dated 2025)
